Measured values from the supplement of paper PMC7017272.
± gives the standard deviation of the averaged measurements.

What was measured:
[1] = system: UT-SCC-81; experiment: relative IC50 (midpoint of the fitted curve; maximal inhibition may be below 50%); higher = less potent; settings: treatment time: 3 days
Outline: (§1)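 Using 384-well plates, 500 cells/well of HPV-negative HNSCC cell lines were grown on plastic, on 500 µg/mL Matrigel or Myogel coatings, or embedded in Matrigel or Myogel with rat collagen I. They were treated with compounds at five 10-fold concentrations for 3 days, and luminescence from CellTiter-Glo 2.0 was normalised to vehicle (0.1% DMSO) and cell-killing control wells. IC50, maximal inhibition and drug sensitivity score were derived from percent-inhibition dose–response curves in the FIMM pipeline.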

[2] = system: UT-SCC-28; experiment: as above; settings: treatment time: 3 days
Outline: as §1

[3] = system: UT-SCC-24B; experiment: as above; settings: treatment time: 3 days
Outline: as §1

[4] = system: UT-SCC-8; experiment: as above; settings: culture condition: embedded in Myogel + collagen I; treatment time: 3 days
Outline: as §1

[5] = system: UT-SCC-81; experiment: maximal % inhibition of viability relative to DMSO; higher = stronger effect; settings: treatment time: 3 days
Protocol: (§2)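 HNSCC cell lines (500 cells/well, 384-well) were cultured on plastic, on top of (2D) or embedded (3D) in Matrigel or human leiomyoma matrix Myogel (500 ug/mL; Myogel 3D mixed with rat collagen I). Cells were treated for 3 days with 5 ten-fold concentrations of each drug, and viability was read by CellTiter-Glo. Viability was normalised to DMSO and benzethonium chloride controls and fitted with the FIMM DSRT pipeline to give IC50 (nM), maximal % inhibition and DSS. Suffixes _1/_2/_3 are replicates. Only inhibition-mode (IC50) fits are kept.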

[6] = system: UT-SCC-106A; experiment: as above; settings: treatment time: 3 days
Protocol: as §2

[7] = system: UT-SCC-40; experiment: as above; settings: treatment time: 3 days
Protocol: as §2

[8] = system: UT-SCC-28; experiment: as above; settings: treatment time: 3 days
Protocol: as §2

[9] = system: UT-SCC-42B; experiment: as above; settings: treatment time: 3 days
Protocol: as §2

[10] = system: UT-SCC-24B; experiment: as above; settings: treatment time: 3 days
Protocol: as §2

[11] = system: UT-SCC-73; experiment: as above; settings: treatment time: 3 days
Protocol: as §2

[12] = system: UT-SCC-42A; experiment: as above; settings: treatment time: 3 days
Protocol: as §2

[13] = system: UT-SCC-14; experiment: as above; settings: treatment time: 3 days
Protocol: as §2

[14] = system: UT-SCC-8; experiment: as above; settings: treatment time: 3 days
Protocol: as §2

[15] = system: UT-SCC-44; experiment: as above; settings: treatment time: 3 days
Protocol: as §2

[16] = system: UT-SCC-42A; experiment: relative IC50 (midpoint of the fitted curve; maximal inhibition may be below 50%); higher = less potent; settings: treatment time: 3 days
Outline: as §1

[17] = system: UT-SCC-14; experiment: as above; settings: culture condition: on top of Matrigel; treatment time: 3 days
Outline: as §1

[18] = culture condition: embedded in Myogel + collagen I
[19] = culture condition: embedded in Matrigel
[20] = culture condition: on top of Matrigel
[21] = culture condition: on top of Myogel
[22] = culture condition: plastic 2D (no matrix)

Question: How did the “relative IC50” value [1, 18] turn out when C#Cc1cccc(Nc2ncnc3cc(OCCOC)c(OCCOC)cc23)c1 [Erlotinib] was run?
Answer: > 9890 nM

Question: What about the “relative IC50” value [2, 19] of the same molecule?
Answer: > 9890 nM

Question: And the “relative IC50” value [3, 19]?
Answer: 522 nM

Question: And the “relative IC50” value [3, 20]?
Answer: 591 nM

Question: And the “relative IC50” value [3, 21]?
Answer: 2490 nM

Question: What about the “relative IC50” value [3, 22] of the same molecule?
Answer: 227 nM

Question: And the “relative IC50” value [4]?
Answer: > 9.89 µM

Question: And the “maximal % inhibition of viability” value [5, 19]?
Answer: 77.1 ± 4.2%

Question: And the “maximal % inhibition of viability” value [5, 18]?
Answer: 6.5 ± 5.1%

Question: And the “maximal % inhibition of viability” value [5, 20]?
Answer: 62 ± 6.1%

Question: And the “maximal % inhibition of viability” value [5, 21]?
Answer: 15.7 ± 4.9%

Question: What about the “maximal % inhibition of viability” value [5, 22] of the same molecule?
Answer: 12.4 ± 3.9%

Question: And the “maximal % inhibition of viability” value [6, 19]?
Answer: 25.1 ± 5.3%

Question: And the “maximal % inhibition of viability” value [6, 18]?
Answer: 10.4 ± 0.53%

Question: What about the “maximal % inhibition of viability” value [6, 20] of the same molecule?
Answer: 23.6 ± 11%

Question: What about the “maximal % inhibition of viability” value [6, 21] of the same molecule?
Answer: 2.57 ± 2.4%

Question: And the “maximal % inhibition of viability” value [6, 22]?
Answer: 19.6 ± 7.3%

Question: And the “maximal % inhibition of viability” value [7, 19]?
Answer: 18.6 ± 8.3%

Question: What about the “maximal % inhibition of viability” value [7, 18] of the same molecule?
Answer: 11.2 ± 9.4%

Question: What about the “maximal % inhibition of viability” value [7, 20] of the same molecule?
Answer: 7.93 ± 2.4%

Question: What about the “maximal % inhibition of viability” value [7, 21] of the same molecule?
Answer: 7.8 ± 4.5%

Question: And the “maximal % inhibition of viability” value [7, 22]?
Answer: 9.97 ± 3.5%

Question: What about the “maximal % inhibition of viability” value [8, 19] of the same molecule?
Answer: 11.3 ± 9.9%

Question: And the “maximal % inhibition of viability” value [8, 18]?
Answer: 14 ± 5.9%

Question: And the “maximal % inhibition of viability” value [8, 20]?
Answer: 12.2 ± 3.6%

Question: And the “maximal % inhibition of viability” value [8, 22]?
Answer: 8.37 ± 7.3%

Question: What about the “maximal % inhibition of viability” value [9, 19] of the same molecule?
Answer: 36.7 ± 12%

Question: And the “maximal % inhibition of viability” value [9, 20]?
Answer: 13.7 ± 13%

Question: What about the “maximal % inhibition of viability” value [9, 21] of the same molecule?
Answer: 4.07 ± 4.7%

Question: And the “maximal % inhibition of viability” value [9, 22]?
Answer: 4.5 ± 0.98%

Question: What about the “maximal % inhibition of viability” value [10, 19] of the same molecule?
Answer: 76.5 ± 0.95%

Question: And the “maximal % inhibition of viability” value [10, 18]?
Answer: 67.5 ± 6.2%

Question: What about the “maximal % inhibition of viability” value [10, 20] of the same molecule?
Answer: 74.4 ± 3%

Question: And the “maximal % inhibition of viability” value [10, 21]?
Answer: 59.3 ± 5%

Question: What about the “maximal % inhibition of viability” value [10, 22] of the same molecule?
Answer: 80.9 ± 1.6%

Question: What about the “maximal % inhibition of viability” value [11, 19] of the same molecule?
Answer: 11.2 ± 8.1%

Question: What about the “maximal % inhibition of viability” value [11, 18] of the same molecule?
Answer: 13.6 ± 19%

Question: What about the “maximal % inhibition of viability” value [11, 20] of the same molecule?
Answer: 13.9 ± 3.5%

Question: What about the “maximal % inhibition of viability” value [11, 21] of the same molecule?
Answer: 9.4 ± 5.2%

Question: What about the “maximal % inhibition of viability” value [11, 22] of the same molecule?
Answer: 5.97 ± 2.2%

Question: And the “maximal % inhibition of viability” value [12, 19]?
Answer: 23.9 ± 23%

Question: What about the “maximal % inhibition of viability” value [12, 18] of the same molecule?
Answer: 9.7 ± 4.9%

Question: What about the “maximal % inhibition of viability” value [12, 20] of the same molecule?
Answer: 32.1 ± 18%

Question: And the “maximal % inhibition of viability” value [12, 21]?
Answer: 12.6 ± 2.3%

Question: And the “maximal % inhibition of viability” value [12, 22]?
Answer: 20.6 ± 17%

Question: What about the “maximal % inhibition of viability” value [13, 19] of the same molecule?
Answer: 29.5 ± 7.8%

Question: And the “maximal % inhibition of viability” value [13, 18]?
Answer: 9.87 ± 4.7%

Question: And the “maximal % inhibition of viability” value [13, 20]?
Answer: 9.6 ± 10%

Question: What about the “maximal % inhibition of viability” value [13, 21] of the same molecule?
Answer: 11.6 ± 10%

Question: What about the “maximal % inhibition of viability” value [13, 22] of the same molecule?
Answer: 8.77 ± 15%

Question: And the “maximal % inhibition of viability” value [14, 19]?
Answer: 67.3 ± 28%

Question: What about the “maximal % inhibition of viability” value [14, 18] of the same molecule?
Answer: 14.7 ± 22%

Question: And the “maximal % inhibition of viability” value [14, 20]?
Answer: 55.5 ± 29%

Question: What about the “maximal % inhibition of viability” value [14, 21] of the same molecule?
Answer: 21.4 ± 0.72%

Question: What about the “maximal % inhibition of viability” value [14, 22] of the same molecule?
Answer: 40.5 ± 14%

Question: What about the “maximal % inhibition of viability” value [15, 19] of the same molecule?
Answer: 6.07 ± 5.3%

Question: And the “maximal % inhibition of viability” value [15, 18]?
Answer: 10 ± 9.8%

Question: And the “maximal % inhibition of viability” value [15, 20]?
Answer: 14.1 ± 8.5%

Question: What about the “maximal % inhibition of viability” value [15, 21] of the same molecule?
Answer: 20.4 ± 11%

Question: And the “maximal % inhibition of viability” value [15, 22]?
Answer: 15.9 ± 13%

Question: Which results are given for CO[C@H]1C[C@@H]2CC[C@@H](C)[C@@](O)(O2)C(=O)C(=O)N2CCCC[C@H]2C(=O)O[C@H]([C@H](C)C[C@@H]2CC[C@@H](OCCO)[C@H](OC)C2)CC(=O)[C@H](C)/C=C(\C)[C@@H](O)[C@@H](OC)C(=O)[C@H](C)C[C@H](C)/C=C/C=C/C=C/1C [Everolimus]?
Answer: relative IC50 [1, 18]: 2.53 nM; relative IC50 [1, 20]: 6.53 nM; relative IC50 [1, 21]: 6.12 nM; relative IC50 [1, 22]: 2.97 nM; relative IC50 [2, 18]: 6.89 nM; relative IC50 [3, 21]: 5.03 nM; relative IC50 [16, 18]: 5.97 nM; relative IC50 [16, 20]: 15 nM; relative IC50 [16, 21]: 10.5 nM; relative IC50 [17]: 6.41 nM; maximal % inhibition of viability [5, 19]: 43.5 ± 14%; maximal % inhibition of viability [5, 18]: 54.1 ± 1.6%; maximal % inhibition of viability [5, 20]: 39.4 ± 3.5%; maximal % inhibition of viability [5, 21]: 53.2 ± 3.5%; maximal % inhibition of viability [5, 22]: 46.8 ± 3.7%; maximal % inhibition of viability [6, 19]: 30.8 ± 12%; maximal % inhibition of viability [6, 18]: 20.6 ± 4.6%; maximal % inhibition of viability [6, 20]: 40.7 ± 13%; maximal % inhibition of viability [6, 21]: 21.3 ± 5%; maximal % inhibition of viability [6, 22]: 50.1 ± 11%; maximal % inhibition of viability [7, 19]: 27.2 ± 25%; maximal % inhibition of viability [7, 18]: 33.3 ± 4.4%; maximal % inhibition of viability [7, 20]: 23.3 ± 5.5%; maximal % inhibition of viability [7, 21]: 20.2 ± 10%; maximal % inhibition of viability [7, 22]: 21.6 ± 8.3%; maximal % inhibition of viability [8, 19]: 28.6 ± 11%; maximal % inhibition of viability [8, 18]: 27.7 ± 7.6%; maximal % inhibition of viability [8, 20]: 28.2 ± 6.3%; maximal % inhibition of viability [8, 22]: 28.1 ± 8.8%; maximal % inhibition of viability [9, 19]: 14.8 ± 5.8%; maximal % inhibition of viability [9, 20]: 14.4 ± 2.9%; maximal % inhibition of viability [9, 21]: 10.9 ± 2.4%; maximal % inhibition of viability [9, 22]: 12.6 ± 3.1%; maximal % inhibition of viability [10, 19]: 28.7 ± 6.1%; maximal % inhibition of viability [10, 18]: 44.8 ± 5.3%; maximal % inhibition of viability [10, 20]: 18.1 ± 0.91%; maximal % inhibition of viability [10, 21]: 30.1 ± 8.6%; maximal % inhibition of viability [10, 22]: 24.9 ± 3%; maximal % inhibition of viability [11, 19]: 22.8 ± 3.8%; maximal % inhibition of viability [11, 18]: 46.1 ± 20%; maximal % inhibition of viability [11, 20]: 26 ± 4.4%; maximal % inhibition of viability [11, 21]: 34.8 ± 1.5%; maximal % inhibition of viability [11, 22]: 28 ± 2.5%; maximal % inhibition of viability [12, 19]: 17.3 ± 9.2%; maximal % inhibition of viability [12, 18]: 32.2 ± 2.5%; maximal % inhibition of viability [12, 20]: 34.3 ± 6%; maximal % inhibition of viability [12, 21]: 33.1 ± 5%; maximal % inhibition of viability [12, 22]: 29.9 ± 2.9%; maximal % inhibition of viability [13, 19]: 58 ± 10%; maximal % inhibition of viability [13, 18]: 50.9 ± 5.5%; maximal % inhibition of viability [13, 20]: 47.6 ± 5.8%; maximal % inhibition of viability [13, 21]: 42.6 ± 0.36%; maximal % inhibition of viability [13, 22]: 46.4 ± 8.9%; maximal % inhibition of viability [14, 19]: 39.1 ± 2.8%; maximal % inhibition of viability [14, 18]: 36.4 ± 12%; maximal % inhibition of viability [14, 20]: 36.6 ± 9.4%; maximal % inhibition of viability [14, 21]: 46.9 ± 14%; maximal % inhibition of viability [14, 22]: 44.7 ± 11%; maximal % inhibition of viability [15, 19]: 30.9 ± 17%; maximal % inhibition of viability [15, 18]: 45 ± 2.1%; maximal % inhibition of viability [15, 20]: 34 ± 2.7%; maximal % inhibition of viability [15, 21]: 37.7 ± 4.2%; maximal % inhibition of viability [15, 22]: 33.1 ± 5.5%
